Patent US11713309B2, “Solid forms of Cerdulatinib” (Alexion Pharmaceuticals, Inc., priority 2018, dated 2023)
Values after ≈ are worked out from the molar mass of the structure shown. Structures can show the parent of a compound that is named as a salt. One block for each molecule: values may come before it.

Legend:
Assay type in all cases: physicochemical
[1] = Solubility of Compound I Form I in various solvents
[2] = Gravimetric vapor sorption (GVS) hygroscopicity; conditions: for Crystalline form by XRPD post GVS analysis: exposure to humidity 0 to about 90% RH, about 25° C.
Experimental: Sorption isotherms were obtained using a Hiden Isochema moisture sorption analyser (model IGAsorp), controlled by IGAsorp Systems Software v6.50.48. The sample was maintained at a constant temperature (25° C.) by the instrument controls. The humidity was controlled by mixing streams of dry and wet nitrogen, with a total flow of 250 mL·min^−1. The instrument was verified for relative humidity content by measuring three calibrated Rotronic salt solutions (10-50-88%). The weight change of the sample was monitored as a function of humidity by a microbalance (accuracy+/−0.005 mg). A defined amount of sample was placed in a tared mesh stainless steel basket under ambient conditions. A full experimental cycle consisted of two scans (sorption and desorption) at a constant temperature (25° C.) and 10% RH intervals over a 10-90% range (90 minutes for each humidity level).
The hygroscopicity of the esylate, mesylate, HCl, and sulfate salts/co-crystals of Compound I formed via the first scale up process was analyzed. All hygroscopicity experiments covered a wide range of humidity (0 to about 90% relative humidity) and were performed at about 25° C. to assess behavior.

[3] = Kinetic solubility in FaSSIF; conditions: for Solubility (mg/mL) 1 h / Solubility (mg/mL) 2 h / Solubility (mg/mL) 4 h / Solubility (mg/mL) 24 h: 37° C.; for Solubility (mg/mL) 1 h: drug loading ~10 mg/mL as freebase; for pH 1 h / pH 2 h / pH 4 h / pH 24 h: supernatant, FaSSIF (native pH 6.5)
Experimental: (§1) Kinetic solubility testing was conducted as follows: About 40-55 mg material was weighed into a 5-mL EP pipe. 4 mL of water/bio-relevant media (SGF, FaSSIF, or FeSSIF) was added into the corresponding sample pipe (drug loading: ˜10 mg/mL calculated as freebase). The pipes were capped tightly and the material was verified to be in contact with the media. The sample vials were placed on a roller and start rolling at 37° C. (rate: 25 r/min). Samples were taken at 1, 2, 4, 24 h. For each time point, 1.0 mL of suspension was transferred into a 2-mL centrifuge tube and the samples were centrifuged. The supernatant was filtered via 0.45 μm PTFE membrane and solubility and pH were measured. An XRPD test on residual solids was conducted.

[4] = Kinetic solubility in FeSSIF; conditions: for Solubility (mg/mL) 1 h / Solubility (mg/mL) 2 h / Solubility (mg/mL) 4 h / Solubility (mg/mL) 24 h: 37° C.; for Solubility (mg/mL) 1 h: drug loading ~10 mg/mL as freebase; for pH 1 h / pH 2 h / pH 4 h / pH 24 h: supernatant
Experimental: as §1

[5] = Kinetic solubility in water; conditions: 37° C.; for pH of supernatant: water (native pH 7.6); for Final Form of residual solids (XRPD) / Kinetic solubility: water
Experimental: as §1

[6] = Kinetic solubility in SGF; conditions: for Solubility (mg/mL) 1 h / Solubility (mg/mL) 2 h / Solubility (mg/mL) 4 h / Solubility (mg/mL) 24 h: 37° C.; for Solubility (mg/mL) 1 h: drug loading ~10 mg/mL as freebase; for pH 1 h / pH 2 h / pH 4 h / pH 24 h: supernatant, SGF (native pH 1.8)
Experimental: as §1

[7] = 1 h, listed as Isethionate Type A
[8] = 2 h, listed as Isethionate Type A
[9] = 4 h, listed as Isethionate Type A
[10] = 24 h, listed as Isethionate Type A

- Solubility of Compound I Form I (Observations) ([1]; 25 mg/1 mL Acetone): <5 mg
- Solubility of Compound I Form I (Observations) ([1]; 25 mg/1 mL Acetonitrile): <5 mg
- Solubility of Compound I Form I (Observations) ([1]; 25 mg/1 mL DCM): about 10 mg
- Solubility of Compound I Form I (Observations) ([1]; 25 mg/1 mL EtOAc): <5 mg
- Solubility of Compound I Form I (Observations) ([1]; 25 mg/1 mL Heptane): <5 mg
- Solubility of Compound I Form I (Observations) ([1]; 25 mg/1 mL IPA): <5 mg
- Solubility of Compound I Form I (Observations) ([1]; 25 mg/1 mL MeOH): <5 mg
- Solubility of Compound I Form I (Observations) ([1]; 25 mg/1 mL TBME): <5 mg
- Solubility of Compound I Form I (Observations) ([1]; 25 mg/1 mL THF): <5 mg
- Solubility of Compound I Form I (Observations) ([1]; 25 mg/1 mL Toluene): about 10 mg
Compound: CCS(=O)(=O)N1CCN(c2ccc(Nc3ncc(C(N)=O)c(NC4CC4)n3)cc2)CC1 [Compound I Form I, 4-(cyclopropylamino)-2-(4-(4-(ethylsulfonyl)piperazin-1-yl)phenylamino)pyrimidine-5-carboxamide]

- GVS hygroscopicity / moisture uptake ([2]; between 0 and about 60% RH, 25° C.): not subject to moisture uptake
- GVS weight uptake ([2]; between about 60% to about 90% RH): RH; about 5 mg
- GVS mass lost relative to the input weight ([2]; dried to about 10% RH): about 4.6%
- Crystalline form by XRPD post GVS analysis [2]: loss of crystallinity
- Deliquescence in GVS ([2]; large water uptake about 60 to about 90% RH): deliquescence did not result
- GVS weight change (sudden increase in weight) ([2]; sorption above about 60% RH): ~35%
Compound: CCS(=O)(=O)N1CCN(c2ccc(Nc3ncc(C(N)=O)c(NC4CC4)n3)cc2)CC1 [Compound I esylate Form I, 4-(cyclopropylamino)-2-(4-(4-(ethylsulfonyl)piperazin-1-yl)phenylamino)pyrimidine-5-carboxamide]

- GVS water absorbed ([2]; 25° C., first scale up material, listed as Comp. I Mesylate Form II): About 12 mg
- GVS total mass lost ([2]; desorption): about 2%
- Crystalline form by XRPD post GVS analysis [2]: does not result in a form change
- GVS total weight uptake from the starting point ([2]; sorption, increasing RH): ≤ 1.4%
Compound: CCS(=O)(=O)N1CCN(c2ccc(Nc3ncc(C(N)=O)c(NC4CC4)n3)cc2)CC1 [Compound I mesylate Form II, 4-(cyclopropylamino)-2-(4-(4-(ethylsulfonyl)piperazin-1-yl)phenylamino)pyrimidine-5-carboxamide]

- Solubility (mg/mL) 1 h ([3]; FaSSIF, 1 h, listed as Esylate Type A): 0.015 mg/mL (≈ 33.7 µM)
- Solubility (mg/mL) 2 h ([3]; FaSSIF, 2 h, listed as Esylate Type A): 0.012 mg/mL (≈ 26.9 µM)
- Solubility (mg/mL) 4 h ([3]; FaSSIF, 4 h, listed as Esylate Type A): 0.024 mg/mL (≈ 53.9 µM)
- Solubility (mg/mL) 24 h ([3]; FaSSIF, 24 h, listed as Esylate Type A): 0.0040 mg/mL (≈ 8.98 µM)
- Final Form ([3]; XRPD of residual solids, FaSSIF, 1 h, 2 h, 4 h, 24 h): Freebase Form II
- pH 1 h ([3]; 1 h, listed as Esylate Type A): 5.2
- pH 2 h ([3]; 2 h, listed as Esylate Type A): 5.0
- pH 4 h ([3]; 4 h, listed as Esylate Type A): 4.3
- pH 24 h ([3]; 24 h, listed as Esylate Type A): 3.8
- Solubility (mg/mL) 1 h ([4]; 1 h, listed as Esylate Type A): 0.060 mg/mL (≈ 135 µM)
- Solubility (mg/mL) 2 h ([4]; 2 h, listed as Esylate Type A): 0.027 mg/mL (≈ 60.6 µM)
- Solubility (mg/mL) 4 h ([4]; 4 h, listed as Esylate Type A): 0.014 mg/mL (≈ 31.4 µM)
- Solubility (mg/mL) 24 h ([4]; 24 h, listed as Esylate Type A): 0.011 mg/mL (≈ 24.7 µM)
- Final Form 2 h, 4 h, 24 h ([4]; XRPD of residual solids, 2 h, 4 h, 24 h): Freebase Form II
- pH 1 h ([4]; 1 h, listed as Esylate Type A): 4.8
- pH 2 h ([4]; 2 h, listed as Esylate Type A): 4.7
- pH 4 h ([4]; 4 h, listed as Esylate Type A): 4.7
- pH 24 h ([4]; 24 h, listed as Esylate Type A): 4.4
- pH of supernatant ([5]; 1 h, listed as Esylate Type A): 2.3
- pH of supernatant ([5]; 2 h, listed as Esylate Type A): 2.0
- pH of supernatant ([5]; 4 h, listed as Esylate Type A): 2.2
- pH of supernatant ([5]; 24 h, listed as Esylate Type A): 2.1
- Final Form of residual solids (XRPD) ([5]; 1 h, 2 h, 4 h, 24 h, listed as Esylate Type A): Freebase Form II
- Kinetic solubility ([5]; 1 h, listed as Esylate Type A): 1700 µg/mL
- Kinetic solubility ([5]; 2 h, listed as Esylate Type A): 1500 µg/mL
- Kinetic solubility ([5]; 4 h, listed as Esylate Type A): 1400 µg/mL
- Kinetic solubility ([5]; 24 h, listed as Esylate Type A): 1300 µg/mL
- Solubility (mg/mL) 1 h ([6]; SGF, 1 h, listed as Esylate Type A): 0.092 mg/mL (≈ 206 µM)
- Solubility (mg/mL) 2 h ([6]; SGF, 2 h, listed as Esylate Type A): 0.10 mg/mL (≈ 224 µM)
- Solubility (mg/mL) 4 h ([6]; SGF, 4 h, listed as Esylate Type A): 0.087 mg/mL (≈ 195 µM)
- Solubility (mg/mL) 24 h ([6]; SGF, 24 h, listed as Esylate Type A): 0.083 mg/mL (≈ 186 µM)
- Final Form ([6]; XRPD of residual solids, SGF, 1 h, 2 h, 4 h, 24 h): HC1 salt Form I
- pH 1 h ([6]; 1 h, listed as Esylate Type A): 2.1
- pH 2 h ([6]; 2 h, listed as Esylate Type A): 1.9
- pH 4 h ([6]; 4 h, listed as Esylate Type A): 2.1
- pH 24 h ([6]; 24 h, listed as Esylate Type A): 1.9
Compound: CCS(=O)(=O)N1CCN(c2ccc(Nc3ncc(C(N)=O)c(NC4CC4)n3)cc2)CC1 [Compound I esylate Type A, 4-(cyclopropylamino)-2-(4-(4-(ethylsulfonyl)piperazin-1-yl)phenylamino)pyrimidine-5-carboxamide]

- Solubility (mg/mL) 1 h ([3]; FaSSIF, 1 h, listed as Isethionate Type A): 0.020 mg/mL
- Solubility (mg/mL) 2 h ([3]; FaSSIF, 2 h, listed as Isethionate Type A): 0.026 mg/mL
- Solubility (mg/mL) 4 h ([3]; FaSSIF, 4 h, listed as Isethionate Type A): 0.018 mg/mL
- Solubility (mg/mL) 24 h ([3]; FaSSIF, 24 h, listed as Isethionate Type A): 0.015 mg/mL
- pH 1 h [3, 7]: 3.9
- pH 2 h [3, 8]: 3.9
- pH 4 h [3, 9]: 3.9
- pH 24 h [3, 10]: 3.9
- Solubility (mg/mL) 1 h [4, 7]: 0.0058 mg/mL
- Solubility (mg/mL) 2 h [4, 8]: 0.0053 mg/mL
- Solubility (mg/mL) 4 h [4, 9]: 0.0052 mg/mL
- Solubility (mg/mL) 24 h [4, 10]: 0.0054 mg/mL
- Final Form ([4]; XRPD of residual solids, 1 h, 2 h, 4 h, 24 h (merged cell), listed as Isethionate Type A): Freebase Form II
- pH 1 h [4, 7]: 4.6
- pH 2 h [4, 8]: 4.7
- pH 4 h [4, 9]: 4.7
- pH 24 h [4, 10]: 4.6
- pH of supernatant [5, 7]: 2.1
- pH of supernatant [5, 8]: 2.0
- pH of supernatant [5, 9]: 2.1
- pH of supernatant [5, 10]: 2.1
- Final Form of residual solids (XRPD) ([5]; 1 h, 2 h, 4 h, 24 h, listed as Isethionate Type A): Freebase Form II
- Kinetic solubility [5, 7]: 1500 µg/mL
- Kinetic solubility [5, 8]: 1300 µg/mL
- Kinetic solubility [5, 9]: 1300 µg/mL
- Kinetic solubility [5, 10]: 1200 µg/mL
- Solubility (mg/mL) 1 h ([6]; SGF, 1 h, listed as Isethionate Type A): 0.077 mg/mL
- Solubility (mg/mL) 2 h ([6]; SGF, 2 h, listed as Isethionate Type A): 0.081 mg/mL
- Solubility (mg/mL) 4 h ([6]; SGF, 4 h, listed as Isethionate Type A): 0.073 mg/mL
- Solubility (mg/mL) 24 h ([6]; SGF, 24 h, listed as Isethionate Type A): 0.069 mg/mL
- pH 1 h [6, 7]: 1.9
- pH 2 h [6, 8]: 1.9
- pH 4 h [6, 9]: 2.1
- pH 24 h [6, 10]: 2.0
Compound: CCS(=O)(=O)N1CCN(c2ccc(Nc3ncc(C(N)=O)c(NC4CC4)n3)cc2)CC1 [Compound I isethionate Type A, 4-(cyclopropylamino)-2-(4-(4-(ethylsulfonyl)piperazin-1-yl)phenylamino)pyrimidine-5-carboxamide]
